Experimental findings from PubChem BioAssay AID1259332 (Broad Institute, 2017) are described below.

Activity calls are given as the source filed them. How the calls were made is not given here.

This assay deals with B cell line, CD40 signaling inhibition reporter. Nature of the assay: CD40 pathway inhibition in B cells – B cell lineage, dose response (AID 1259332).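 Further: cells stimulated with CD40 ligand tCD40L.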
With `CCc1csc(N2[C@H](C#N)[C@H](c3ccc(C#Cc4ccc(F)cc4)cc3)[C@H]2CO)n1`, the AC50 (as a rule, the midpoint of the concentration-response curve, whichever way the signal moves) is > 20 µM (inactive). In the case of `CO[C@H](CN(C)Cc1cc(F)ccc1F)[C@H](C)CN(C(=O)Nc1ccc(C(F)(F)F)cc1)[C@H](C)CO`, the AC50 is 8.88 µM. For `C[C@H](CO)N1C[C@H](C)[C@H](CN(C)S(=O)(=O)c2ccc([N+](=O)[O-])cc2)OCc2ccccc2-c2c(n(C)c3ccccc23)C1=O`, the AC50 was 9.57 µM. For `N#Cc1c(Br)n(C2OC(CO)C(O)C2O)c2ncnc(N)c12` (stereo not drawn), the AC50 is 1.74 µM. In the case of `COC(=O)c1ccccc1-c1c2ccc(=N)cc-2oc2cc(N)ccc12`, the concentration at half-maximal activity (AC50) is 10.9 µM.

`COC(=O)c1ccc2nc(NC(=O)C(C)(C)C)sc2c1`: the AC50 is 1.9 µM. As to `C[C@@H]1CN([C@@H](C)CO)C(=O)c2c(c3ccccc3n2C)-c2ccccc2CO[C@H]1CN(C)Cc1cccc(C(=O)Nc2ccccc2N)c1`, the AC50 is > 20 µM (inactive). `Cc1ccc2nc(C(F)(F)F)c(C#N)c(N)c2c1`: the AC50 was 6.7 µM.

For `CC1CNCCN1S(=O)(=O)c1cccc2cnccc12` (stereo not drawn), the AC50 was 9.01 µM. Take `COc1ccc(-c2ccc([C@H]3[C@@H](C#N)N(C(=O)c4cccc(F)c4)[C@H]3CO)cc2)cc1`: the AC50 was > 22 µM (inactive). For the molecule `CC[C@@]1(O)C(=O)OCc2c1cc1n(c2=O)Cc2cc3c(CN(C)C)c(O)ccc3nc2-1`, the half-maximal activity concentration (AC50) is 0.9 µM. Take `CCC1=C(CC2NCCc3ccccc32)CC2c3cc(OC)c(OC)cc3CCN2C1` (stereo not drawn): the AC50 was 1.75 µM. The same measure for `COc1ccc2c3c([nH]c2c1)[C@H](CO)N(C(=O)Nc1ccc(F)cc1)CC31CCN(C(=O)c2ccccc2F)CC1`: 6.92 µM. For `CC1=CC2OC3CC4OC(=O)C=CC=CC(C(C)O)OCC(O)C5(C)OC5C(=O)OCC2(CC1O)C4(C)C31CO1` (stereo not drawn), the AC50 was 0.0375 µM.

On to `O=C(Cc1ccccc1)N1CC[C@@H]2[C@H]1c1cc(C#Cc3cccc(F)c3)ccc1N[C@@H]2CO`, for which the AC50 is 5.19 µM. As for `Cc1ccc(OCCn2cnc3c(N)ncnc32)cc1`, the AC50 was 0.649 µM. For `N#C[C@@H]1[C@H](c2ccc(C#CC3CCCC3)cc2)[C@H](CO)N1C(=O)Cc1ccccn1`, the AC50 was 9.08 µM.

As for `C[C@H]1CN([C@@H](C)CO)C(=O)c2c(c3ccccc3n2C)-c2ccccc2CO[C@@H]1CN(C)Cc1cccc(C(F)(F)F)c1`, the AC50 is 2.17 µM. As to `CC(C)=CCc1c2c(c3occ(-c4ccc(O)c(O)c4)c(=O)c3c1O)C=CC(C)(C)O2`, the AC50 is 4.31 µM. Next, `COc1ccc(C#Cc2ccc([C@H]3[C@H]4CN(C(=O)c5ccncc5)CCCCN4[C@H]3CO)cc2)cc1`: 11.2 µM; `CCN1C(=O)C(CC(=O)Nc2ccc(F)cc2)N(Cc2ccco2)C1=S` (stereo not drawn): 5.03 µM; `N#Cc1cccc(-c2ccc(C3[C@H]4CNC[C@@H]3N4Cc3ccc4c(c3)OCO4)cc2)c1` (stereo partly drawn): > 20 µM (inactive). Take `CCC(C)[C@H]1O[C@]2(CC[C@@H]1C)C[C@@H]1C[C@@H](C/C=C(\C)[C@@H](OC3C[C@H](OC)C(O[C@H]4C[C@H](OC)[C@@H](O)[C@H](C)O4)[C@H](C)O3)[C@@H](C)/C=C/C=C3\CO[C@@H]4[C@H](O)C(C)=C[C@@H](C(=O)O1)[C@]34O)O2` (stereo partly drawn): the AC50 was > 20 µM (inactive). Take `Cc1c(CCOC(=O)CC23CC4CC(CC(C)(C4)C2)C3)sc[n+]1CC(=O)c1ccccc1`: the AC50 was 3.22 µM.

`C[C@@H]1CN([C@@H](C)CO)C(=O)c2ccccc2-c2ccccc2CO[C@@H]1CN(C)Cc1ccc(Oc2ccccc2)cc1`: the AC50 was > 20 µM (inactive).

Consider `CC(C)OC(=O)c1cn(Cc2c(F)cccc2F)c2sc(-c3ccc(NC(=O)C(C)C)cc3)c(CN(C)Cc3ccccc3)c2c1=O`, for which the AC50 was > 20 µM (inactive). Next, `CCN1/C(=C/c2sc(-c3ccccc3C)c[n+]2C)Sc2ccccc21`: 1.91 µM; `Cc1noc(C)c1S(=O)(=O)Nc1ccc2c(c1)C(=O)N([C@@H](C)CO)C[C@@H](C)[C@@H](CN(C)C(=O)Nc1cccc3ccccc13)OCCCC[C@H](C)O2`: 1.52 µM. For `COCCn1c(C)cc(C(=O)COC(=O)c2ccc(Cl)c(S(N)(=O)=O)c2)c1C`, the AC50 was > 20 µM (inactive).

Consider `CN(C)c1ccc(C=c2c3cc(O)ccc3n3c2cc(-c2ccccc2)[n+]3C)cc1`, for which the AC50 is 3.43 µM. `Cc1ccc(-c2ccccc2[C@H]2[C@@H](C#N)N(c3ncc(-c4ccccc4)s3)[C@@H]2CO)cc1`: the AC50 was > 20 µM (inactive). For `COc1ccc2cc(-c3cc(C(=O)O)c4ccccc4n3)ccc2c1`, the AC50 is 6.11 µM.

For `O=C(C1CCC1)N1CCc2cc(S(=O)(=O)N3CCCCC3)ccc21`, the AC50 was > 20 µM (inactive). Take `CN1C(=O)/C(=N\OC(=O)c2cccc3ccccc23)c2ccccc21`: the AC50 is 1.21 µM. The same measure for `c1ccc(-c2nnc(-c3ccccn3)nn2)nc1`: 10.5 µM; for `CC12CCC3C(CCC4(O)CC(O)CCC34C=O)C1(O)CCC2C1=CC(=O)OC1` (stereo not drawn): 3.86 µM.

With `CNC(=S)NN=C(C)CCCC(C)=NNC(=S)NC`, the AC50 is 1.26 µM. Take `N#CC(C#N)=NNc1cccc(Cl)c1`: the AC50 was 6.54 µM. Turning to `COc1c(O)cc2oc3cc(O)c(CC=C(C)C)c(O)c3c(=O)c2c1CC=C(C)C`, the half-maximal activity concentration (AC50) was 3.6 µM. As to `COc1c(-c2coc3cc4c(cc3c2=O)CC(O)C(C)(C)O4)ccc2c1C=CC(C)(C)O2` (stereo not drawn), the AC50 was > 20 µM (inactive). With `CCN(CC)CCCNc1nc2ccccc2c2[nH]c3ccc(OC)cc3c12`, the AC50 was 1.1 µM. The same measure for `O=C(C1CCCC1)N1CC(=O)N2[C@@H](CO)[C@@H](c3ccc(C#CCc4ccccc4)cc3)[C@@H]2C1`: 1.95 µM. Consider `CS(=O)(=O)c1ccc(C(=O)OCC(=O)NC(=O)C2COc3ccccc3O2)cc1[N+](=O)[O-]` (stereo not drawn), for which the AC50 is 10.2 µM. As to `CC1=C(SCCO)C(=O)c2ccccc2C1=O`, the AC50 was 2.6 µM. `CC(C)CC#Cc1ccc([C@@H]2[C@H]3CN(C(=O)Nc4ccccc4)CCCCN3[C@H]2CO)cc1`: the concentration at half-maximal activity (AC50) is 9.52 µM. Turning to `CC1=CC(C)(C)N=C(Nc2nc(C)c3cc(C)cc(C)c3n2)N1`, the AC50 is 3.85 µM.

On to `C[C@@H]1O[C@@H](O[C@H]2C[C@@H](O)[C@]3(CO)C4C(CC[C@]3(O)C2)[C@@]2(O)CC[C@H](C3=CC(=O)OC3)[C@@]2(C)C[C@H]4O)[C@H](O)[C@H](O)[C@H]1O` (stereo partly drawn), for which the AC50 is 0.294 µM. Next, `CC(=O)OC1CCC2(C)C(CCC3C4CC=C(C(C)=O)C4(C)OC(=O)CC32)C1` (stereo not drawn): 2.3 µM; `O=C(Cc1ccccc1)N1CC[C@@H]2[C@H]1c1cc(-c3cccc(F)c3)ccc1N[C@@H]2CO`: 1.89 µM. As for `COc1cccc(S(=O)(=O)N(C)C[C@H]2OCc3ccccc3-c3c(n(C)c4ccccc34)C(=O)N([C@H](C)CO)C[C@@H]2C)c1`, the AC50 is > 7 µM (inactive). Regarding `C=C1C(=O)OC2C=C(CO)C3OC3C3OC3(C)CC(OC(=O)/C(=C/C)COC(C)=O)C12` (stereo not drawn), the half-maximal activity concentration (AC50) was 2.02 µM. For the molecule `O=C1CCCCC1Sc1nnc(-c2ccc3c(c2)OCO3)o1` (stereo not drawn), the AC50 was 0.951 µM. As for `C[C@@H]1CN([C@H](C)CO)C(=O)c2c(c3ccccc3n2C)-c2ccccc2CO[C@@H]1CN(C)C(=O)c1cc(Cl)cc(Cl)c1`, the concentration at half-maximal activity (AC50) was 8.65 µM. Regarding `Cn1cnc([N+](=O)[O-])c1S(=O)(=O)Oc1cccc2ccccc12`, the AC50 is 0.368 µM. The same measure for `CC1=C(O)C(=O)C=C2C1=CC=C1C2(C)CCC2(C)C3CC(C)(C(=O)O)CCC3(C)CCC12C` (stereo not drawn): 0.888 µM; for `O=C1NC2C(O)C(O)C(O)C(O)C2c2cc3c(c(O)c21)OCO3` (stereo not drawn): 0.155 µM; for `CC[C@H]1CN2CCc3cc(OC)c(OC)cc3C2C[C@@H]1CC1NCCc2cc(OC)c(OC)cc21` (stereo partly drawn): 0.0205 µM.

On to `COc1ccc(CC2C(=O)NC(C)C(=O)N(C)C3Cc4ccc(cc4)Oc4cc(ccc4O)CC(C(=O)NC(C)C(=O)NC(C)C(=O)N2C)N(C)C3=O)cc1` (stereo not drawn), for which the AC50 is 0.00631 µM.

For the molecule `N#C[C@@H]1[C@@H](c2ccccc2-c2ccc(F)cc2)[C@H](CO)N1C(=O)NC1CCCCC1`, the AC50 was > 22 µM (inactive). Turning to `CC(C)[C@H](N)C(=O)N[C@H]1CCC2C3CC=C4C[C@@H](O)CC[C@]4(C)C3CC[C@@]21C` (stereo partly drawn), the AC50 is 2.97 µM. As to `c1ccc(-c2ccc(-c3ccccn3)nn2)nc1`, the concentration at half-maximal activity (AC50) was 7.89 µM. With `O=C(C[C@@H]1CC[C@H]2[C@@H](COC[C@@H](O)CN2Cc2cc(F)ccc2F)O1)NCc1ccc(Oc2ccccc2)cc1`, the AC50 was > 20 µM (inactive).

`CC(=O)OC1CC2(O)C3CCC4CC(O)CCC4(C)C3CCC2(C)C1C1=CC(=O)OC1` (stereo not drawn): the AC50 was 1.12 µM. For the molecule `CCOC(=O)c1c(SCCN2CCCC2)n(-c2ccccc2)c(=S)n(-c2ccccc2)c1=O`, the AC50 was > 20 µM (inactive). The same measure for `COc1ccc(CC2C(=O)NC(C)C(=O)N(C)C3C(=O)N(C)C(Cc4ccc(O)c(c4)Oc4ccc(cc4)C3O)C(=O)NC(C)C(=O)NC(C)C(=O)N2C)cc1` (stereo not drawn): 0.00902 µM. The same measure for `C[C@H]1CN([C@@H](C)CO)C(=O)c2ccccc2-c2ccccc2CO[C@@H]1CN(C)Cc1ccccc1C(F)(F)F`: 7.28 µM.

Take `CCCCCCCCCCCCCCCC[n+]1ccccc1`: the AC50 was 0.266 µM. Next, `COc1ccc(C(=O)O/N=C2\C(=O)N(C)c3ccccc32)cc1`: 1.84 µM; `COc1ccc(/C=C2/CCC(CN3CCOCC3)C2=O)cc1` (stereo not drawn): 3.67 µM; `CC(=O)Nc1ccc(Sc2ccc([N+](=O)[O-])o2)cc1`: 1.99 µM. With `Cc1ccsc1C(=O)OCC(=O)c1cc(C)n(CC2CCCO2)c1C` (stereo not drawn), the AC50 was 0.124 µM. `Cc1ccc(S(=O)(=O)N[C@@H](Cc2ccccc2)C(=O)CCl)cc1`: the AC50 is 2.99 µM. With `C[C@@H]1C[C@@H]([C@H](O)CC2CC(=O)NC(=O)C2)C(=O)[C@@H](C)C1`, the AC50 was 0.393 µM.

For the molecule `Clc1ccc(CSC(Cn2ccnc2)c2ccc(Cl)cc2Cl)cc1` (stereo not drawn), the AC50 is > 20 µM (inactive). Take `COc1ccc(S(=O)(=O)Nc2ccc3c(c2)C(=O)N([C@H](C)CO)C[C@@H](C)[C@@H](CN(C)Cc2ccc(C(F)(F)F)cc2)OCCCC[C@@H](C)O3)cc1`: the AC50 is 8.69 µM. In the case of `Cc1ccccc1NC(=O)c1nc(S(C)(=O)=O)ncc1Cl`, the AC50 is 1.68 µM. The same measure for `CC(=NNC(=S)N1CC2CCC(CC2)C1)c1nccs1`: > 7 µM (inactive); for `Cc1ccc(CN2CC(C(=O)Nc3ncc(C)s3)CC2=O)cc1` (stereo not drawn): 4.99 µM.
